Experimental data as given in patent publication US10351539B2, “Macrocyclic complexes, their process of preparation and use as PET imaging agents” (INSTITUT NATIONAL DE LA SANTE ET DE LA RECHERCHE MEDICALE …, priority 2014, dated 2019).
Like-named read-outs stand apart in the source and are kept apart here.

Legend:
[1] = Maurizis et al. 2000, 7.4 MBq/Kg; cited from earlier work
[2] = Biodistribution in healthy and SRC bearing rats at 1 h after i.v. injection of radiolabelled compounds; format: in vivo; conditions: mean ± SD (n = 3)
Procedure: (§1) Quantitative biodistribution of radiolabelled compounds was determined in rats: healthy animals as well as rats with primary grade II orthotopic chondrosarcoma at stage Day-30 after induction. The chondrosarcoma model was the Swarm Rat Chondrosarcoma model (SRC) implanted in paratibial location. Radiolabelled compounds (5-10 Mbq/animal) were i.v. administered in the caudal vein of animals being anesthetized of mixture of ketamine (58 mg/kg i.p.) (Imalgéne 500®) and xylazine (6 mg/kg i.p.) (Rompun® 2%, Bayer, France). One hour after injection, animals were then sacrificed by CO2 inhalation, dissected and organs of interest removed, weighed and their radioactivity counted using a gamma counter (Model 1480 Wizard, Perkin Elmer Life Sciences, Boston, USA). Organs collected were blood, muscle, knee, kidneys, liver, thoracic ribs, bladder for both healthy and chondrosarcoma bearing rats. For SRC animals, tumour was also sampled. After radioactive decay correction, results were expressed for each organ as % injected dose per gram (% ID/g) and averaged per group.

[3] = Study 3: quantitative biodistribution of ^64Cu-5 in rats; format: in vivo
Procedure: as §1, with “USA).” for “USA). Organs collected were blood, muscle, knee, kidneys, liver, thoracic ribs, bladder for both healthy and chondrosarcoma bearing rats.”, “tumor” for “tumour”
The comparison was carried out between ^64Cu-5 and ^99mTc-NTPC, the NTPC ligand having the following structure: […]

[4] = i.v., 5-10 MBq/animal, one hour after injection

Row | Structure (SMILES) | Articular Cartilage [1] [% ID/g] | Blood [1] [% ID/g] | Intervertebral disc [1] [% ID/g] | Kidney [1] [% ID/g] | Liver [1] [% ID/g] | Tumor ([2]; SRC (Swarm Rat Chondrosarcoma) bearing rats) [% ID/g] | Articular Cartilage ([2]; healthy and SRC bearing rats) [% ID/g] | Bladder ([2]; healthy and SRC bearing rats) [% ID/g] | Blood ([2]; healthy and SRC bearing rats) [% ID/g] | Kidney ([2]; healthy and SRC bearing rats) [% ID/g] | Muscle ([2]; healthy and SRC bearing rats) [% ID/g] | Uptake in kidneys compared to ^99mTc-NTPC [3] | Uptake in liver [3] | Uptake in target organs (intervertebral disc and articular cartilage) compared to ^99mTc-NTPC [3] | Articular Cartilage [3, 4] [% ID/g] | Blood [3, 4] [% ID/g] | Intervertebral disc [3, 4] [% ID/g] | Kidney [3, 4] [% ID/g] | Elimination compared to ^99mTc-NTPC ([3]; indicated by accumulation in kidneys) | In vivo stability (Cu is not released) ([3]; inferred from liver uptake)
1 | CC[N+](CC)(CC)CCCN1CCCNCCNCCCNCC1 [^99mTc-NTPC, metal not drawn] | 0.52 ± 0.08 | 0.22 ± 0.05 | 0.36 ± 0.09 | 2.96 ± 0.36 | 4.34 ± 0.47 |  |  |  |  |  |  |  |  |  |  |  |  |  |  | 
2 | CC[N+](CC)(CC)CCCN1CCCNCCNCCCNCC1.[64Cu+2] [^64Cu-5, [^64Cu]—N,N,N-Triethyl-3-(1,4,8,11-tetraazacyclotetradecan-1-yl)propan-1-aminium copper(II)] |  |  |  |  |  | 5.2 ± 2.1 | 5.9 ± 2.3 | 66.5 ± 14.4 | 0.8 ± 1.2 | 27.5 ± 10.1 | 1.5 ± 1.2 | higher uptake | undetectable | higher uptake | 5.9 ± 2.3 | 0.8 ± 1.2 | 3.5 ± 0.6 | 27.5 ± 10.1 | good elimination | stable
